Paper PMC2631127 (Acta Crystallographica Section D: Biological Crystallography, 2008)

Columns and labels:
[1] = target: human homolog of mouse Rieske-type ferredoxin (HRF) (Homo sapiens, UniProt Q8TAC1); experiment: optical absorption spectrum of purified protein; format: binding; settings: bound as purified
[2] = target: T4moF, bacterial oxidoreductase (Ectopseudomonas mendocina, UniProt Q03304); experiment: reduction of MRF followed at […] nm, anaerobic; format: biochemical; settings: electron acceptor MRF; 4 nM T4moF; 1 mM NADH
T4moF, bacterial oxidoreductase, sequence (Q03304 whole entry): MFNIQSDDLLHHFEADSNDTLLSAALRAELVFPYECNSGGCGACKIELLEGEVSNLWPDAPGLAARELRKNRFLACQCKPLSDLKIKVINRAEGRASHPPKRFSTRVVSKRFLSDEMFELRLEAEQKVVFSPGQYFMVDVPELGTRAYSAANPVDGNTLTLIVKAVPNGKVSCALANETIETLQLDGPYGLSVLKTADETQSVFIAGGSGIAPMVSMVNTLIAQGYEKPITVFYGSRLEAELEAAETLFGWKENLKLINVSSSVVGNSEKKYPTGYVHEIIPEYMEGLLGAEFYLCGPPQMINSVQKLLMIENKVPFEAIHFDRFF

human homolog of mouse Rieske-type ferredoxin (HRF), sequence (Q8TAC1 2-157 limits assumed): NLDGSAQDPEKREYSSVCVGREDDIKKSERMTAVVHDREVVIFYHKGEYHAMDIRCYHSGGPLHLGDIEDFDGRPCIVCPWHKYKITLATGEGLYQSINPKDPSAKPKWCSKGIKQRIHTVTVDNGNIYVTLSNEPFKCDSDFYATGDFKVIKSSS

SMILES	optical absorption spectrum of purified protein [1]	reduction of MRF followed at 460 nm, anaerobic [2]
[S]1[Fe][S][Fe]1 [[2Fe–2S] cluster]	Expression and purification of HRF following the same protocol resulted in similar purity and [2Fe–2S]	
NC(=O)C1=CN([C@@H]2O[C@H](COP(=O)(O)OP(=O)(O)OC[C@H]3O[C@@H](n4cnc5c(N)ncnc54)[C@H](O)[C@@H]3O)[C@@H](O)[C@H]2O)C=CC1 [NADH]		measured at multiple MRF concentrations in the presence of saturating NADH
